This experiment concerns the target T1, interaction between VCAM-1 and VLA-4 (Homo sapiens, UniProt P05556+P13612).
T1 construct: supplied in their natural form as surface molecules on human U937 cells; host or cells: human U937 cells (VLA-4, endogenous); the partner hVCAM-1(1-3)-IgG was made in house in transfected COS cells (ATCC CRL1651) and used as culture supernatant
In words: U937/VCAM-1 cell adhesion test (adhesion of U937 cells to hVCAM-1(1-3)-IgG). It counts as cell-based. The conditions noted are these: inhibition of adhesion of human U937 cells (ATCC CRL 1593) to hVCAM-1(1-3)-IgG. The source says: A) U937/VCAM-1 Cell Adhesion Test
The test method used for the activity of the compounds of the formula I on the interaction between VCAM-1 and VLA-4 is the assay described below, which is specific for this interaction. The cellular binding components, that is the VLA-4 integrins, are supplied in their natural form as surface molecules on human U937 cells (ATCC CRL 1593), which belong to the leukocytes group. The specific binding components used are genetically engineered recombinant soluble fusion proteins, consisting of the extracytoplasmic domain of human VCAM-1 and the constant region of a human immunoglobulin of the subclass IgG1.
Assay for the Measurement of the Adhesion of U937 Cells (ATCC CRL 1593) to hVCAM-1 (1-3)-IgG
1. Preparation of Human VCAM-1(1-3)-IgG and Human CD4-IgG
A genetic construct for the expression of the extracellular domain of human VCAM-1, combined with the genetic sequence of the heavy chain of human immunoglobulin IgG1 (hinge, CH2 and CH3 regions) (from Brian Seed, Massachusetts General Hospital, Boston, USA; cf. Damle and Aruffo, Proc. Natl. Acad. Sci. USA 1991, 88, 6403), was employed. The soluble fusion protein hVCAM-1(1-3)-IgG contained the three aminoterminal extracellular immunoglobulin-like domains of human VCAM-1 (Damle and Aruffo, Proc. Natl. Acad. Sci. USA 1991, 88, 6403). CD4-IgG (Zettlmeissl et al., DNA and Cell Biology 1990, 9, 347) served as a fusion protein for negative controls. The recombinant proteins were expressed as soluble proteins after DEAE/dextran-mediated DNA transfection in COS cells (ATCC CRL1651) according to standard procedures (Ausubel et al., Current protocols in molecular biology, John Wiley & Sons, Inc., 1994).
2. Assay for the Measurement of the Adhesion of U937 Cells to hVCAM-1(1-3)-IgG
2.1 96-well microtiter test plates (Nunc Maxisorb) were incubated at room temperature for 1 hour with 100 μl/well of a goat-anti-human IgG antibody solution (10 μg/ml in 50 mM tris, pH 9.5). After removal of the antibody solution, washing was carried out once with PBS.
2.2 150 μl/well of a blocking buffer (1% BSA in PBS) were incubated on the plates at room temperature for 0.5 hour. After removal of the blocking buffer, washing was carried out once with PBS.
2.3 100 μl per well of a cell culture supernatant of transfected COS cells were incubated on the plates at room temperature for 1.5 hours. The COS cells were transfected with a plasmid which codes for the three N-terminal immunoglobulin-like domains of VCAM-1, coupled to the Fc portion of human IgG1 (hVCAM-1 (1-3)-IgG). The content of hVCAM-1(1-3)-IgG was about 0.5-1 μg/ml. After removing the culture supernatant, washing was carried out once with PBS.
2.4 The plates were incubated at room temperature for 20 minutes with 100 μl/well of Fc receptor blocking buffer (1 mg/ml of γ-globulin, 100 mM NaCl, 100 μM MgCl2, 100 μM MnCl2, 100 μM CaCl2, 1 mg/ml of BSA in 50 mM HEPES, pH 7.5). After removal of the Fc receptor blocking buffer, washing was carried out once with PBS.
2.5 20 μl of binding buffer (100 μM NaCl, 100 μM MgCl2, 100 μM MnCl2, 100 μM CaCl2, 1 mg/ml of BSA in 50 mM HEPES, pH 7.5) were initially introduced, and the substances to be tested were added in 10 μl of binding buffer and incubated for 20 minutes. The controls used were antibodies against VCAM-1(BBT, No. BBA6) and against VLA-4(Immunotech, No. 0764).
2.6 U937 cells were incubated in Fc receptor blocking buffer for 20 minutes and then pipetted in at a concentration of 1×10^6/ml and in an amount of 100 μl per well ([…]).
2.7 The plates were slowly immersed at an angle of 45° in stop buffer (100 mM NaCl, 100 μM MgCl2, 100 μM MnCl2, 100 μM CaCl2 in 25 mM Tris, pH 7.5) and shaken off. The process was repeated.
2.8 50 μl/well of a dye solution ([…] of Hoechst Dye 33258, 4% formaldehyde, 0.5% Triton X-100 in PBS) were then incubated on the plates for 15 minutes. […]

Counter-ions that a name gives are not always drawn.

T1 sequence (P13612 34-1032): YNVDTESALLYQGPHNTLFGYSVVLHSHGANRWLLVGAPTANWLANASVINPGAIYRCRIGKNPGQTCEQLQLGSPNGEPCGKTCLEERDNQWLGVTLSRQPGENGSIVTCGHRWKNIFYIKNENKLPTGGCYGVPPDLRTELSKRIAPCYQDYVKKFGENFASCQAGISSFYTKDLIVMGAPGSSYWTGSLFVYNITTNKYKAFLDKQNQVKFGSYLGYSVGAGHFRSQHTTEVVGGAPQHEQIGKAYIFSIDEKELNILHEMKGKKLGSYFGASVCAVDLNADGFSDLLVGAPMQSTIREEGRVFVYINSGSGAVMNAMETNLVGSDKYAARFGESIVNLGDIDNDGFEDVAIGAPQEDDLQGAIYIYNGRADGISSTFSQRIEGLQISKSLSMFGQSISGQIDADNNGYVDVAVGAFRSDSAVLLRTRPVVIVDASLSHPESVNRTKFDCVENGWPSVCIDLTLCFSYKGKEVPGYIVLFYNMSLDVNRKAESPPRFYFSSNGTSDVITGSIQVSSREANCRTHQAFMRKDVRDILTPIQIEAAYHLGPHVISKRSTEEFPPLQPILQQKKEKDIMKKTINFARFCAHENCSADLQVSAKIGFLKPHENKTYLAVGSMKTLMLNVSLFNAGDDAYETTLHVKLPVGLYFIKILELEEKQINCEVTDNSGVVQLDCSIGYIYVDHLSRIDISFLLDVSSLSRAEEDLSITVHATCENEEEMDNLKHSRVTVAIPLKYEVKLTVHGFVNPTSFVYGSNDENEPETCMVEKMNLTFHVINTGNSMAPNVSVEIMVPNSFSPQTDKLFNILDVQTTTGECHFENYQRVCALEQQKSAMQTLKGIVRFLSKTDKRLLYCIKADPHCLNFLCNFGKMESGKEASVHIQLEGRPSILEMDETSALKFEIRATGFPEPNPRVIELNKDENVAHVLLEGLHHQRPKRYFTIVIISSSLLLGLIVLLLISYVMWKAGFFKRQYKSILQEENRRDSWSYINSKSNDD
T1 sequence (P05556 21-798): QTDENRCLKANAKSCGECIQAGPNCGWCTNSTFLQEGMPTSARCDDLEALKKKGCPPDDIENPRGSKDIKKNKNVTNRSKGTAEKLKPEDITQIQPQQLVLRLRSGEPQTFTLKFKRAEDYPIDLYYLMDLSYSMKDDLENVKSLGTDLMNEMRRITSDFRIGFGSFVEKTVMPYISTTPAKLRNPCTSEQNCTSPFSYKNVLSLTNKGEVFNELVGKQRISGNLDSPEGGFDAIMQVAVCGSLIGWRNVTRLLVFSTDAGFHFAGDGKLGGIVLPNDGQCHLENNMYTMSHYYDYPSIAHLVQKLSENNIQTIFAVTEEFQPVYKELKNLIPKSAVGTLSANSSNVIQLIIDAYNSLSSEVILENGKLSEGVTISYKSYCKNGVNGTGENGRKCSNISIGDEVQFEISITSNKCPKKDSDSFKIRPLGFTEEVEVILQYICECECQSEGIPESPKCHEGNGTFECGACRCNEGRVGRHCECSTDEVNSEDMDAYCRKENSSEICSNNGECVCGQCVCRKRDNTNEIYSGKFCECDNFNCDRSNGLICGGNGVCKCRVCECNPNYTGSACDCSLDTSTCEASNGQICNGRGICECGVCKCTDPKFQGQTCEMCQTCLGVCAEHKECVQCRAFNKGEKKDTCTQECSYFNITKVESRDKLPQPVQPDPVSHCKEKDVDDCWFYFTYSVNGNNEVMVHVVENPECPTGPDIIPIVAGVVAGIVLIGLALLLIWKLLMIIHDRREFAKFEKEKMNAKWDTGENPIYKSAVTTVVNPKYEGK

For the compound `CC(C)C[C@@H](C(=O)N[C@@H](CC(=O)O)c1ccccc1)N1C(=O)N(Cc2ccc(NC(=O)Nc3ccccc3)cc2)C2(CCCCC2)C1=O` [Example 1, (S)-3-((S)-2-(4,4-Pentamethylene-3-(4-(3-phenylureido)benzyl)-2,5-dioxoimidazolidin-1-yl)-2-(2-methylpropyl)acetylamino)-3-phenylpropionic acid], the IC50 (as a rule, the midpoint of a concentration-inhibition curve) was determined as 3.2 nM. The same measure for `CC(C)C[C@@H](C(=O)N[C@@H](CC(=O)O)c1ccccc1)N1C(=O)N(Cc2ccc(NC(=O)Nc3ccccc3)cc2)C2(CCCCC2)C1=O` [Example 2, (S)-3-((S)-2-(4,4-Pentamethylene-3-(4-(3-phenylureido)benzyl)-2,5-dioxoimidazolidin-1-yl)-2-(2-methylpropyl)acetylamino)-3-phenylpropionic acid tromethamine salt]: 4.5 nM.

For the compound `CC(C)C[C@@H](C(=O)N[C@H](C)CC(=O)O)N1C(=O)N(Cc2ccc(NC(=O)Nc3ccccc3)cc2)C2(CCCCC2)C1=O` [Example 3, (R)-3-((S)-2-(4,4-Pentamethylene-3-(4-(3-phenylureido)benzyl)-2,5-dioxoimidazolidin-1-yl)-2-(2-methylpropyl)acetylamino)-3-methylpropionic acid], the IC50 is 17 nM. Compound `CC(C)C[C@H](CC(=O)O)NC(=O)[C@H](CC(C)C)N1C(=O)N(Cc2ccc(NC(=O)Nc3ccccc3)cc2)C2(CCCCC2)C1=O` [Example 4, (R)-3-((S)-2-(4,4-Pentamethylene-3-(4-(3-phenylureido)benzyl)-2,5-dioxoimidazolidin-1-yl)-2-(2-methylpropyl)acetylamino)-3-(2-methylpropyl)propionic acid] yielded an IC50 of 85.4 nM. With `Cc1ccccc1NC(=O)Nc1ccc(CN2C(=O)N([C@@H](CC(C)C)C(=O)N[C@@H](CC(=O)O)c3ccccc3)C(=O)C23CCCCC3)cc1` [Example 8, (S)-3-((S)-2-(4,4-Pentamethylene-3-(4-(3-(2-methylphenyl)ureido)benzyl)-2,5-dioxoimidazolidin-1-yl)-2-(2-methylpropyl)acetylamino)-3-phenylpropionic acid] the figure was 3.2 nM; with `Cc1ccccc1NC(=O)Nc1ccc(CN2C(=O)N([C@@H](CC(C)C)C(=O)N[C@H](C)CC(=O)O)C(=O)C23CCCCC3)cc1` [Example 9, (R)-3-((S)-2-(4,4-Pentamethylene-3-(4-(3-(2-methylphenyl)ureido)benzyl)-2,5-dioxoimidazolidin-1-yl)-2-(2-methylpropyl)acetylamino)-3-methylpropionic acid], 2.2 nM. The compound `COc1ccc([C@H](CC(=O)O)NC(=O)[C@H](CC(C)C)N2C(=O)N(Cc3ccc(NC(=O)Nc4ccccc4)cc3)C3(CCCCC3)C2=O)cc1` [Example 16, (S)-3-((S)-2-(4,4-Pentamethylene-3-(4-(3-phenylureido)benzyl)-2,5-dioxoimidazolidin-1-yl)-2-(2-methylpropyl)acetylamino)-3-(4-methoxyphenyl)propionic acid] displayed an IC50 of 4 nM. The same measure for `COc1ccc([C@H](CC(=O)O)NC(=O)[C@H](CC(C)C)N2C(=O)N(Cc3ccc(NC(=O)Nc4ccccc4)cc3)C3(CCCCC3)C2=O)cc1` [Example 17, (S)-3-((S)-2-(4,4-Pentamethylene-3-(4-(3-phenylureido)benzyl)-2,5-dioxoimidazolidin-1-yl)-2-(2-methylpropyl)acetylamino)-3-(4-methoxyphenyl)propionic acid tromethamine salt]: 1.9 nM; for `COc1ccc([C@H](CC(=O)O)NC(=O)[C@H](CC(C)C)N2C(=O)N(Cc3ccc(NC(=O)Nc4ccccc4)cc3)C3(CCCCC3)C2=O)c(OC)c1` [Example 18, (S)-3-((S)-2-(4,4-Pentamethylene-3-(4-(3-phenylureido)benzyl)-2,5-dioxoimidazolidin-1-yl)-2-(2-methylpropyl)acetylamino)-3-(2,4-dimethoxyphenyl)propionic acid]: 2.4 nM; for `COc1ccc([C@H](CC(=O)O)NC(=O)[C@H](CC(C)C)N2C(=O)N(Cc3ccc(NC(=O)Nc4ccccc4)cc3)C3(CCCCC3)C2=O)c(OC)c1` [Example 19, (S)-3-((S)-2-(4,4-Pentamethylene-3-(4-(3-phenylureido)benzyl)-2,5-dioxoimidazolidin-1-yl)-2-(2-methylpropyl)acetylamino)-3-(2,4-dimethoxyphenyl)propionic acid tromethamine salt]: 3 nM. In turn, `COc1ccc([C@H](CC(=O)O)NC(=O)[C@H](CC(C)C)N2C(=O)N(Cc3ccc(NC(=O)Nc4ccccc4)cc3)C3(CCCCC3)C2=O)cc1OC` [Example 20, (S)-3-((S)-2-(4,4-Pentamethylene-3-(4-(3-phenylureido)benzyl)-2,5-dioxoimidazolidin-1-yl)-2-(2-methylpropyl)acetylamino)-3-(3,4-dimethoxyphenyl)propionic acid] showed a half-maximal inhibitory concentration (IC50) of 1.6 nM. Compound `COc1ccc([C@H](CC(=O)O)NC(=O)[C@H](CC(C)C)N2C(=O)N(Cc3ccc(NC(=O)Nc4ccccc4)cc3)C3(CCCCC3)C2=O)cc1OC` [Example 21, (S)-3-((S)-2-(4,4-Pentamethylene-3-(4-(3-phenylureido)benzyl)-2,5-dioxoimidazolidin-1-yl)-2-(2-methylpropyl)acetylamino)-3-(3,4-dimethoxyphenyl)propionic acid tromethamine salt] showed an IC50 of 3 nM. The same measure for `COc1cccc([C@H](CC(=O)O)NC(=O)[C@H](CC(C)C)N2C(=O)N(Cc3ccc(NC(=O)Nc4ccccc4)cc3)C3(CCCCC3)C2=O)c1` [Example 22, (S)-3-((S)-2-(4,4-Pentamethylene-3-(4-(3-phenylureido)benzyl)-2,5-dioxoimidazolidin-1-yl)-2-(2-methylpropyl)acetylamino)-3-(3-methoxyphenyl)propionic acid]: 6.7 nM.

With `Cc1ccccc1NC(=O)Nc1ccc(CN2C(=O)N([C@@H](CC(C)C)C(=O)N[C@@H](CC(=O)O)c3ccccc3)C(=O)C23CCCCC3)cc1` [Example 23, (S)-3-((S)-2-(4,4-Pentamethylene-3-(4-(3-(2-methylphenyl)ureido)benzyl)-2,5-dioxoimidazolidin-1-yl)-2-(2-methylpropyl)acetylamino)-3-phenylpropionic acid tromethamine salt], the IC50 worked out at 5.5 nM. `Cc1ccccc1NC(=O)Nc1ccc(CN2C(=O)N([C@@H](CC(C)C)C(=O)N[C@H](C)CC(=O)O)C(=O)C23CCCCC3)cc1` [Example 24, (R)-3-((S)-2-(4,4-Pentamethylene-3-(4-(3-(2-methylphenyl)ureido)benzyl)-2,5-dioxoimidazolidin-1-yl)-2-(2-methylpropyl)acetylamino)-3-methylpropionic acid tromethamine salt] gave an IC50 of 1.7 nM.

These data come from patent US6399643B1, “Spiroimidazolidine derivatives, their preparation, their use and pharmaceutical preparations formed therefrom” (Aventis Pharma Deutschland GmbH, priority 1999, dated 2002).
